Measurements: US12214017B2, “GLP-1 compositions and uses thereof” (Novo Nordisk A/S, priority 2017, dated 2025)

Assay: Assay (III): purity of liraglutide by HPLC (chemical stability)
Type: physicochemical
Conditions: composition without phenol, compared with phenol-containing compositions
Method: Assay (III): Determination of Purity of Liraglutide
Determination of purity was performed using high performance liquid chromatography (HPLC) using a Waters XTerra™ MS C18 column with a gradient elution of two mobile phases, where one mobile phase was an aqueous ammonium phosphate buffer (pH 8)/acetonitrile mixture and the other mobile phase was acetonitrile in water. Detection was performed at 215 nm.
The results in Table 5 were obtained as follows: Compositions comprising liraglutide were tested. The tested compositions contained liraglutide (as specified in Table 4), mannitol (36.9 mg/ml), disodium hydrogen phosphate (1.42 mg/ml), and optionally phenol (as specified in Table 4), at pH 7.4 in an aqueous solution. These compositions were prepared as described herein in the section General Methods of Preparation. Chemical stability as expressed by purity was determined by Assay (III) described herein at start of the experiment and after storage at 25° C. or at 37° C.

- Chemical stability of liraglutide (in words): less chemically stable
SMILES: CCCCCCCCCCCCCCCC(=O)N[C@@H](CCC(=O)NCCCC[C@H](NC(=O)[C@H](C)NC(=O)[C@H](C)NC(=O)[C@H](CCC(N)=O)NC(=O)CNC(=O)[C@H](CCC(=O)O)NC(=O)[C@H](CC(C)C)NC(=O)[C@H](Cc1ccc(O)cc1)NC(=O)[C@H](CO)NC(=O)[C@H](CO)NC(=O)[C@@H](NC(=O)[C@H](CC(=O)O)NC(=O)[C@H](CO)NC(=O)[C@@H](NC(=O)[C@H](Cc1ccccc1)NC(=O)[C@@H](NC(=O)CNC(=O)[C@H](CCC(=O)O)NC(=O)[C@H](C)NC(=O)[C@@H](N)Cc1cnc[nH]1)[C@@H](C)O)[C@@H](C)O)C(C)C)C(=O)N[C@@H](CCC(=O)O)C(=O)N[C@@H](Cc1ccccc1)C(=O)N[C@H](C(=O)N[C@@H](C)C(=O)N[C@@H](Cc1c[nH]c2ccccc12)C(=O)N[C@@H](CC(C)C)C(=O)N[C@H](C(=O)N[C@@H](CCCNC(=N)N)C(=O)NCC(=O)N[C@@H](CCCNC(=N)N)C(=O)NCC(=O)O)C(C)C)[C@@H](C)CC)C(=O)O [liraglutide]
